This passage reports IC50 results from PubChem BioAssay AID1850 (Southern Research Specialized Biocontainment Screening …, 2009).

Molecules are shown by their SMILES. Where “and” joins values, the source holds several entries; their conditions need not be identical. Equal entries are not always repeated.

A word on the IC50: it is the concentration at which inhibition is half-maximal.

The experiment concerns Salmonella Typhi PhoP-promoter GFP reporter, fluorescence, 4 h. The experiment can be described thus: Inhibition of PhoP regulon, Salmonella typhi GFP reporter cells, confirmation, 4 h (AID 1850).
In the case of `NC(=O)SCC(=O)Nc1ccc(Cl)c(Cl)c1`, the concentration for half-maximal inhibition (IC50) was 13.7 µM.
In the case of `Cc1ccc(NC(=O)CN(C)C2CCCCC2)cc1Br`, the IC50 is 81.2 µM.
For `CNCC[C@H](Oc1cccc2ccccc12)c1cccs1`, the IC50 is 82 µM.
The result for `Cn1ncnc2c(=O)n(C)c(=O)nc1-2` reads 1.29 µM.
As to `O/N=C/c1ccc(OCc2ccccc2)c(Cl)c1`, the IC50 was 80.6 µM.
With `O=C(C[n+]1cc(Br)cc2ccccc21)c1ccc(Cl)cc1`, the IC50 is 76.1 µM.
Take `OCCN1CCN(C2Cc3cc(Cl)ccc3Sc3ccc(Cl)cc32)CC1` (configuration not stated) (tested in a mixture with another compound): the IC50 is 34.6 µM.
On to `CC/C(=N\Nc1ccnc2cc(Cl)ccc12)c1ccc(O)cc1`, for which the IC50 was 50.9 µM.
In the case of `OC1(c2ccc(Cl)cc2)CCN(Cc2c[nH]c3ccccc23)CC1`, the IC50 is 69.5 µM.
In the case of `C=C1c2c(Cl)ccc(O)c2C(O)=C2C(=O)[C@]3(O)C(O)=C(C(N)=O)C(=O)[C@@H](N(C)C)[C@@H]3[C@@H](O)C12` (some centres not stated), the IC50 is 0.8 µM.
`CC(C)(c1ccccc1)c1ccc(OCCCNCCO)cc1`: the IC50 is 72 µM.
The figure for `CCCCCCCCCCOC(=O)C[N+](C)(C)CC1CCCCC1O` (configuration not stated) is 34.9 µM.
For `Cc1ccc2c(c1)C1CN(C)CCC1N2Sc1ccccc1[N+](=O)[O-]` (configuration not stated), the IC50 is 43.7 µM.
Turning to `C#CCOCCOCCOCCNc1nc(N2CCN(C(=O)CCCCCCCCCCNC(=O)[C@H](CCCCN)n3cc(CCO)nn3)CC2)nc(N2CCN(C(=O)CCCCCCCCCCNC(=O)[C@H](CCCN=C(N)N)n3cc(C[C@@H](C)CC)nn3)CC2)n1`, the IC50 is 34.5 µM.
In the case of `NC(N)=N/N=C/c1ccc(OCc2ccc(Cl)cc2)cc1`, the IC50 is 35.6 µM.
With `Clc1ccc2c(c1)C(N1CCNCC1)Cc1ccccc1S2` (configuration not stated), the IC50 is 35.5 µM.
Regarding `O=C(/C=C/c1ccc(F)cc1)NC(=S)NNC(=O)c1cnccn1`, the IC50 was 28.6 µM.
The figure for `N=c1n(CCN2CCCCC2)c2ccccc2n1CC(=O)c1ccc(Cl)c(Cl)c1` is 34.9 µM; for `NC(N)=N/N=C/c1ccc(OCc2ccccc2Cl)cc1` it is 31.2 µM; for `N#C/C(N=Nc1ccccc1O)=N\Nc1ccccc1O` it is 36.1 µM.
The result for `O=C(N/N=C/c1ccccn1)c1cccs1` reads 71.6 µM.
`O=Nc1c(O)c2ccccc2c2ccccc12`: the IC50 was 19.7 µM.
Take `Cc1ncc(CC(=O)n2cc(C(=O)c3cc(Cl)ccc3O)cn2)s1`: the IC50 was 83 µM.
`COC(=O)C1=C(C)N(Cc2ccccc2)C(=NCc2cccc(C(F)(F)F)c2)N[C@H]1c1cccc(F)c1`: the IC50 was 33.3 µM.
With `CN(C)CC/C=C1/c2cc(F)ccc2Sc2ccc(Cl)cc21`, the IC50 was 65.9 µM.
As to `c1ccc(CN2CCC(Nc3nc(-c4cccs4)nc4ccccc34)CC2)cc1`, the IC50 was 21.5 µM.
For the compound `Cc1ccc2c(c1)c1c(n2CC(O)CN2CCC(C)CC2)CCCC1` (configuration not stated), the IC50 is 78.3 µM.
The result for `CCOc1cc(CNCCCN2CCOCC2)cc(Br)c1OCC(=O)Nc1cccc(C(F)(F)F)c1` reads 84.6 µM; that for `COc1c(N2CCN(C(=S)Nc3ccc(F)cc3)C(C)C2)c(F)cc2c(=O)c(C(=O)O)cn(C3CC3)c12` (configuration not stated), 1.72 µM; that for `CNCCC=C1c2ccccc2CCc2ccccc21`, 139 µM.
The result for `CCCCn1c(=N)n(CC(=O)c2ccc(Br)s2)c2ccccc21` reads 51.4 µM; that for `COc1ccc(CNCCc2cccc(F)c2)c2ccccc12`, 74.6 µM; that for `CCOC(=O)c1c(-c2ccccc2)oc2ccc(OCC(O)CNCCN(C)C)cc12` (configuration not stated), 61 µM.
The result for `O=C(Nc1csc(Cl)c1)c1ccccc1` reads 25.1 µM; that for `Clc1ccc(-c2cc(C3CCNCC3)[nH]n2)c(Cl)c1`, 55 µM.
As for `Cc1ccc(OCC(=O)N/N=C\c2c(C)[nH]n(-c3ccccc3)c2=O)c([N+](=O)[O-])c1`, the IC50 is 66.6 µM.
The figure for `Clc1ccc(C[n+]2cc(-c3ccc(Cl)cc3)n3c2CCC3)cc1` is 52.4 µM; for `O=[N+]([O-])c1cc(CN2CCN(c3cccc(C(F)(F)F)c3)CC2)c2cccnc2c1O` it is 20.8 µM; for `CCCCCCCCCCCCOC(=O)C[N+](C)(C)C` it is 29.9 µM.
Turning to `CCn1cc(C(=O)O)c(=O)c2cc(F)c(N3CCN(C(=S)NC(=O)c4cc(OC)cc(OC)c4)CC3)cc21`, the IC50 is 45.8 µM.
In the case of `Cc1ccccc1C(=O)NNC(=S)NC(=O)COc1ccccc1`, the IC50 is 132 µM.
Take `CCCCCCCCNc1ncnc2ccccc12`: the IC50 is 18.7 µM.
The result for `Nc1[nH]ncc1-c1ccccc1` reads 69.6 µM; that for `CCCCCCCCCCCCCCCC[N+](C)(C)CC`, 18.6 µM; that for `Cc1c(CCOC(=O)C2C3CC4CC(C3)CC2C4)sc[n+]1CC(=O)c1ccc(Br)cc1` (configuration not stated), 34.8 µM.
The result for `CCn1cc(C(=O)O)c(=O)c2cc(F)c(N3CCN(C)CC3)cc21` reads 0.43 µM; that for `CCN1/C(=C/c2cc[n+](C)cc2)C=Cc2cc(C)ccc21`, 36.9 µM; that for `Cc1cc(OCCCCCN2CCCC2)ccc1Cl`, 122 µM.
Take `c1ccc(CNc2nc(N3CCN(Cc4ccccc4)CC3)nc3ccccc23)cc1`: the IC50 was 18.2 µM.
On to `CCCCCNc1nc(N2CCCC2)c2c(c1C#N)CCN(C)C2`, for which the IC50 is 53.6 µM.
On to `O=C(CN1C2=NCCCN2c2ccccc21)c1ccc([N+](=O)[O-])cc1`, for which the IC50 is 104 µM.
Regarding `O=C(CNC(=O)c1cccc(F)c1)N/N=C/c1ccc([N+](=O)[O-])s1`, the IC50 was 20 µM.
The result for `Clc1ccc(OCCCN2CCCC2)cc1Cl` reads 93.3 µM.
Regarding `CN(C)CCCN(C(=O)COc1ccccc1)c1nc2ccc(Cl)cc2s1`, the IC50 was 77.8 µM.
In the case of `C#CCOCCOCCOCCNc1nc(N2CCN(C(=O)CCCCCCCCCCNC(=O)[C@H](CCCCN)n3cc(C[C@@H](C)CC)nn3)CC2)nc(N2CCN(C(=O)CCCCCCCCCCNC(=O)[C@H](CCCN=C(N)N)n3cc(C[C@@H](C)CC)nn3)CC2)n1`, the IC50 is 33.3 µM.
The figure for `COc1ccc(CNCCc2ccc(Cl)cc2)cc1OCc1ccccc1` is 66.4 µM.
The result for `Fc1cccc(Nc2c3c(nc4ccccc24)CCC3)c1` reads 54.3 µM; that for `Clc1cc(Br)ccc1OCCCNCc1ccccc1`, 36.5 µM; that for `NC(=NCCCCCCN=C(N)/N=C(\N)Nc1ccc(Cl)cc1)/N=C(\N)Nc1ccc(Cl)cc1`, 5.4 µM and 7.69 µM and 5.26 µM.
Regarding `Cc1ccc(-c2csc(N=C(N)N)n2)c(C)c1`, the IC50 is 50.1 µM.
Consider `CNCCCC1Sc2ccccc2Oc2ccccc21` (configuration not stated), for which the IC50 is 98.5 µM.
Regarding `Cc1cc(N2CCC(C)CC2)nc2cccc(O)c12`, the IC50 is 77.1 µM.
With `O=C(C[n+]1cc(-c2ccc(Cl)c(Cl)c2)n2c1CCC2)N1c2ccccc2Sc2ccccc21`, the IC50 is 26.9 µM.
As for `Nc1cc(Cl)c2nonc2c1[N+](=O)[O-]`, the IC50 was 38.4 µM.
As for `Cc1ccc(C[n+]2c(-c3ccc(C)cc3)cc(-c3ccc(C)cc3)cc2-c2ccc(C)cc2)cc1`, the IC50 is 20.1 µM.
Take `O=C(Oc1c(Cl)cc(Cl)c2cccnc12)c1ccco1`: the IC50 is 14.6 µM.
Consider `CCCCC(CC)CN=C(N)NC(N)=NCCCCCCN=C(N)NC(N)=NCC(CC)CCCC` (configuration not stated), for which the IC50 was 2.73 µM.
In the case of `Cc1ccc(C)c(NC(=O)CCC(=O)N/N=C/c2cc([N+](=O)[O-])ccc2O)c1`, the IC50 was 60.6 µM.
On to `Cc1cc(C)c2c(N)c3ccccc3nc2n1`, for which the IC50 is 77.3 µM.
Consider `N/C(=N\OS(=O)(=O)c1ccc(Cl)cc1)c1cccnc1`, for which the IC50 was 26.6 µM.
Take `O=C(Cn1nc(CNc2ccc(Br)cc2)[n+]2c1CCCCC2)c1ccc([N+](=O)[O-])cc1`: the IC50 is 40.1 µM.
The result for `Cn1c(SCC(=O)N/N=C/c2ccc([N+](=O)[O-])s2)nnc1-c1ccc(Cl)cc1` reads 35.8 µM; that for `CCCCC(=O)NC(=S)NNC(=O)CC`, 70.2 µM.
The result for `CC(NCc1ccc(Cl)c(Cl)c1)C(O)c1ccccc1` (configuration not stated) reads 61.6 µM; that for `CCc1ccc(N2CC(C(=O)N/N=C/c3cc([N+](=O)[O-])ccc3O)CC2=O)cc1` (configuration not stated), 55.8 µM.
Consider `CCCC(=O)NC(c1ccco1)c1cc([N+](=O)[O-])c2cccnc2c1O` (configuration not stated), for which the IC50 is 38.9 µM.
Take `CCC(=O)N1CCN(c2cc3c(cc2F)c(=O)c(C(=O)O)cn3CC)CC1`: the IC50 was 52.3 µM.
Take `Cc1nc2ccccn2c1C(=O)N/N=C/c1ccc([N+](=O)[O-])o1`: the IC50 is 44.5 µM.
The figure for `CSc1nc2cc(Oc3cccc(Cl)c3Cl)c(Cl)cc2[nH]1` is 37.3 µM.
Consider `N/C(=N\N=C/c1ccc(F)cc1)N/N=C\c1ccc(F)cc1`, for which the IC50 is 37.8 µM.
The result for `C#CCOCCOCCOCCNc1nc(N2CCN(C(=O)CCCCCCCCCCNC(=O)[C@@H](CCSC)n3cc(CCO)nn3)CC2)nc(N2CCN(C(=O)CCCCCCCCCCNC(=O)[C@H]([C@@H](C)CC)n3cc(CCCCCN)nn3)CC2)n1` reads 119 µM; that for `CCCCCCCCCn1c2c(c(=N)c3c1CCC3)CCC2`, 17.4 µM.
Regarding `COc1ccc2c(C(=O)CCl)c[nH]c2c1`, the IC50 is 66.9 µM.
In the case of `COc1cc(/C=N/NC(=O)c2cncc(Br)c2)cc([N+](=O)[O-])c1O`, the IC50 is 63.5 µM.
As to `O=C(NC(=S)NNC(=O)c1cnccn1)c1ccc(F)cc1`, the IC50 is 36.1 µM.
The figure for `CC(C(=O)NC1C=CS(=O)(=O)C1)N1C(=O)/C(=C/c2cccc(Cl)c2)SC1=S` (configuration not stated) is 68.6 µM; for `Cc1ccc(-c2csc(NC(=O)C[n+]3cc(-c4ccccc4)n4c3CCC4)n2)cc1` it is 20.7 µM.
The result for `c1ccc(CN2CCN(c3nc(NCc4ccco4)c4ccccc4n3)CC2)cc1` reads 38 µM.
Turning to `Cc1ccc(C(OCC(O)CNCc2ccc(F)cc2)c2ccccc2)cc1` (configuration not stated), the IC50 is 48.4 µM.
In the case of `Nc1nc(Nc2ccc(Cl)cc2)nc2ccccc12`, the IC50 is 15.3 µM.
`O=C(Cc1ccc([N+](=O)[O-])cc1)N/N=C/c1ccc([N+](=O)[O-])o1`: the IC50 was 19.9 µM.
In the case of `CCOc1ccc(Nc2nc(N)c3ccccc3n2)cc1`, the IC50 was 19.7 µM.
